pIC50: −log10 of the molar value. Bridge positions count the residues as written; N and C are the ends. Square brackets hold non-standard residues; d marks the D form. Peptide text beside a SMILES is read from it. 1Nal = N[C@@H](Cc1cccc2ccccc12)C(=O)O Where only a bound is given, the exact number is not on record here.

One assay deals with T1, human Kv1.3 (CHO) (Homo sapiens, UniProt P22001).
T1 construct: expressed in transfected cells; host or cells: CHO
The assay is described as follows: cell-based.

For another assay, the target named is T2, human Kv1.1 (HEK293) (Homo sapiens, UniProt Q09470).
T2 construct: expressed in transfected cells; host or cells: HEK293
T2 sequence (Q09470 whole entry): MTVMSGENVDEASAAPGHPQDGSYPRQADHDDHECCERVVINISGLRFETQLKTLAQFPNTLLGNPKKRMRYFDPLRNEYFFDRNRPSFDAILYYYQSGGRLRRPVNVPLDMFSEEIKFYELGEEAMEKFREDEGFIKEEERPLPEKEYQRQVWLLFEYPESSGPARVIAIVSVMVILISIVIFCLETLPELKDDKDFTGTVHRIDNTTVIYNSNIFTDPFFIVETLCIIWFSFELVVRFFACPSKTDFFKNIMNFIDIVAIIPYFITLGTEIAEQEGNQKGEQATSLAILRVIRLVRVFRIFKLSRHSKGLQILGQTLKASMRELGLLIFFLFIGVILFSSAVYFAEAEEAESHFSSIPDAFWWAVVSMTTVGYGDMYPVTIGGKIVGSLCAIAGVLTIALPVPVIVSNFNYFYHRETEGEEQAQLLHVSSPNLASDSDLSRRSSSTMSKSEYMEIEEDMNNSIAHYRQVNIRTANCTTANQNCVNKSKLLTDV
Nature of the assay: cell-based.

T1 sequence (P22001 whole entry): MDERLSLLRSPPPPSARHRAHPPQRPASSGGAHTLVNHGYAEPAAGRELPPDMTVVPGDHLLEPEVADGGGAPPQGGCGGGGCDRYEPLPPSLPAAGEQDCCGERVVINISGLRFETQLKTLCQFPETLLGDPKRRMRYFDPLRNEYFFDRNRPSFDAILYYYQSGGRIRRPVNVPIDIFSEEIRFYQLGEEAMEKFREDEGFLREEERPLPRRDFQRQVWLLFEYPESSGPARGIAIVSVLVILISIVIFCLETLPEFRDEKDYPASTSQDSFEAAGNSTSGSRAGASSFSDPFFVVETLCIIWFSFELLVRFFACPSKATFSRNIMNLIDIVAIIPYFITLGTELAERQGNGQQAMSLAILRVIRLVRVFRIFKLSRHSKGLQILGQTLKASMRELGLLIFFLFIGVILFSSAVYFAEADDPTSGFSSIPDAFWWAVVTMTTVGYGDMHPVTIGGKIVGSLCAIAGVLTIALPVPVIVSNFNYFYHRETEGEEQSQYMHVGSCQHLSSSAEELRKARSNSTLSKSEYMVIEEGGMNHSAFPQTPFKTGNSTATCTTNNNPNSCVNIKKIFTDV

A word on the pIC50: it is the negative decadic logarithm of the IC50, by convention in mol/L. The low end stands for a large IC50, the high end for a small IC50. On to `CC[C@H](C)[C@@H]1NC(=O)[C@H](CCCCN)NC(=O)[C@@H](NC(=O)[C@H](CCCCN)NC(=O)[C@@H](NC(=O)[C@H](CC(N)=O)NC(=O)[C@@H](NC(=O)[C@@H](NC(=O)[C@@H](NC(=O)CN)C(C)C)[C@@H](C)CC)[C@@H](C)CC)C(C)C)CSSC[C@@H]2NC(=O)[C@H](CCCCN)NC(=O)CNC(=O)[C@H](Cc3ccccc3)NC(=O)[C@H](CCCNC(=N)N)NC(=O)[C@H](CCSC)NC(=O)CNC(=O)[C@H](C)NC(=O)[C@H](CCCCN)NC(=O)[C@H](CCCCN)NC(=O)[C@@H]3CSSC[C@@H](C(=O)N[C@H](C(=O)N4CCC[C@H]4C(=O)N[C@@H](CCCCN)C(=O)O)[C@@H](C)O)NC(=O)[C@H](Cc4c[nH]cn4)NC(=O)[C@H](CSSC[C@H](NC(=O)[C@H](CCC(N)=O)NC(=O)[C@H](CCCNC(=N)N)NC(=O)[C@H](CO)NC1=O)C(=O)N[C@@H](CC(C)C)C(=O)N[C@@H](CCC(=O)O)C(=O)N[C@@H](CCCNC(=N)N)C(=O)N3)NC(=O)[C@H](CCCCN)NC(=O)CNC(=O)[C@H](CC(N)=O)NC(=O)[C@H](CCSC)NC2=O` [P17R] (H-GVIINVKCKISRQCLERCKKAGMRFGKCMNGKCHCTPK-OH; disulfide 8-28, 14-33, 18-35), for which the pIC50 is 10.98 against human Kv1.3 (CHO) and over 11.82 at human Kv1.1 (HEK293).

Consider `CC[C@H](C)[C@@H]1NC(=O)[C@H](CCCCN)NC(=O)[C@@H](NC(=O)[C@H](CCCCN)NC(=O)[C@@H](NC(=O)[C@H](CC(N)=O)NC(=O)[C@@H](NC(=O)[C@@H](NC(=O)[C@@H](NC(=O)CN)C(C)C)[C@@H](C)CC)[C@@H](C)CC)C(C)C)CSSC[C@@H]2NC(=O)[C@H](CCCCN)NC(=O)CNC(=O)[C@H](Cc3ccccc3)NC(=O)[C@H](CCCNC(=N)N)NC(=O)[C@H](CCSC)NC(=O)CNC(=O)[C@H](C)NC(=O)[C@H](CCCCN)NC(=O)[C@H](CCCCN)NC(=O)[C@@H]3CSSC[C@@H](C(=O)N[C@H](C(=O)N[C@@H](Cc4cccc5ccccc45)C(=O)N[C@@H](CCCCN)C(=O)O)[C@@H](C)O)NC(=O)[C@H](Cc4c[nH]cn4)NC(=O)[C@H](CSSC[C@H](NC(=O)[C@H](CCC(N)=O)NC(=O)[C@H](CCCNC(=N)N)NC(=O)[C@H](CO)NC1=O)C(=O)N[C@@H](CC(C)C)C(=O)N[C@@H](CCC(=O)O)C(=O)N1CCC[C@H]1C(=O)N3)NC(=O)[C@H](CCCCN)NC(=O)CNC(=O)[C@H](CC(N)=O)NC(=O)[C@H](CCSC)NC2=O` [P37Nal] (H-GVIINVKCKISRQCLEPCKKAGMRFGKCMNGKCHCT[1Nal]K-OH; disulfide 8-28, 14-33, 18-35), for which the pIC50 against human Kv1.3 (CHO) was 10.15; against human Kv1.1 (HEK293) it was 11.17.

As to `CC[C@H](C)[C@@H]1NC(=O)[C@H](CCCCN)NC(=O)[C@@H](NC(=O)[C@H](CCCCN)NC(=O)[C@@H](NC(=O)[C@H](CC(N)=O)NC(=O)[C@@H](NC(=O)[C@@H](NC(=O)[C@@H](NC(=O)CN)C(C)C)[C@@H](C)CC)[C@@H](C)CC)C(C)C)CSSC[C@@H]2NC(=O)[C@H](CCCCN)NC(=O)CNC(=O)[C@H](Cc3ccccc3)NC(=O)[C@H](CCCNC(=N)N)NC(=O)[C@H](CCSC)NC(=O)CNC(=O)[C@H](C)NC(=O)[C@H](CCCCN)NC(=O)[C@H](CCCCN)NC(=O)[C@@H]3CSSC[C@@H](C(=O)N[C@H](C(=O)N[C@@H](CCCNC(=N)N)C(=O)N[C@@H](CCCCN)C(=O)O)[C@@H](C)O)NC(=O)[C@H](Cc4c[nH]cn4)NC(=O)[C@H](CSSC[C@H](NC(=O)[C@H](CCC(N)=O)NC(=O)[C@H](CCCNC(=N)N)NC(=O)[C@H](CO)NC1=O)C(=O)N[C@@H](CC(C)C)C(=O)N[C@@H](CCC(=O)O)C(=O)N1CCC[C@H]1C(=O)N3)NC(=O)[C@H](CCCCN)NC(=O)CNC(=O)[C@H](CC(N)=O)NC(=O)[C@H](CCSC)NC2=O` [P37R] (H-GVIINVKCKISRQCLEPCKKAGMRFGKCMNGKCHCTRK-OH; disulfide 8-28, 14-33, 18-35), the pIC50 was 10.88 at human Kv1.3 (CHO) and 11.70 on human Kv1.1 (HEK293).

As to `CC[C@H](C)[C@@H]1NC(=O)[C@H](CCCCN)NC(=O)[C@@H](NC(=O)[C@H](CCCCN)NC(=O)[C@@H](NC(=O)[C@H](CC(N)=O)NC(=O)[C@@H](NC(=O)[C@@H](NC(=O)[C@@H](NC(=O)CN)C(C)C)[C@@H](C)CC)[C@@H](C)CC)C(C)C)CSSC[C@@H]2NC(=O)[C@H](CCCCN)NC(=O)CNC(=O)[C@H](Cc3ccccc3)NC(=O)[C@H](CCCNC(=N)N)NC(=O)[C@H](CCSC)NC(=O)CNC(=O)[C@H](C)NC(=O)[C@H](CCCCN)NC(=O)[C@H](CCCCN)NC(=O)[C@@H]3CSSC[C@@H](C(=O)N[C@H](C(=O)N4CCC[C@H]4C(=O)N[C@@H](CCCCN)C(=O)O)[C@@H](C)O)NC(=O)[C@H](Cc4c[nH]cn4)NC(=O)[C@H](CSSC[C@H](NC(=O)[C@H](C)NC(=O)[C@H](CCCNC(=N)N)NC(=O)[C@H](CO)NC1=O)C(=O)N[C@@H](CC(C)C)C(=O)N[C@@H](CCC(=O)O)C(=O)N1CCC[C@H]1C(=O)N3)NC(=O)[C@H](CCCCN)NC(=O)CNC(=O)[C@H](CC(N)=O)NC(=O)[C@H](CCSC)NC2=O` [Q13A] (H-GVIINVKCKISRACLEPCKKAGMRFGKCMNGKCHCTPK-OH; disulfide 8-28, 14-33, 18-35), the pIC50 on human Kv1.3 (CHO) was 9.60; at human Kv1.1 (HEK293), 10.66.

Turning to `CC[C@H](C)[C@@H]1NC(=O)[C@H](CCCCN)NC(=O)[C@@H](NC(=O)[C@H](CCCCN)NC(=O)[C@@H](NC(=O)[C@H](CC(N)=O)NC(=O)[C@@H](NC(=O)[C@@H](NC(=O)[C@@H](NC(=O)CN)C(C)C)[C@@H](C)CC)[C@@H](C)CC)C(C)C)CSSC[C@@H]2NC(=O)[C@H](CCCCN)NC(=O)CNC(=O)[C@H](Cc3ccccc3)NC(=O)[C@H](CCCNC(=N)N)NC(=O)[C@H](CCSC)NC(=O)CNC(=O)[C@H](C)NC(=O)[C@H](CCCCN)NC(=O)[C@H](CCCCN)NC(=O)[C@@H]3CSSC[C@@H](C(=O)N[C@H](C(=O)N4CCC[C@H]4C(=O)N[C@@H](CCCCN)C(=O)O)[C@@H](C)O)NC(=O)[C@H](Cc4c[nH]cn4)NC(=O)[C@H](CSSC[C@H](NC(=O)[C@H](CCC(=O)O)NC(=O)[C@H](CCCNC(=N)N)NC(=O)[C@H](CO)NC1=O)C(=O)N[C@@H](CC(C)C)C(=O)N[C@@H](CCC(=O)O)C(=O)N1CCC[C@H]1C(=O)N3)NC(=O)[C@H](CCCCN)NC(=O)CNC(=O)[C@H](CC(N)=O)NC(=O)[C@H](CCSC)NC2=O` [Q13E] (H-GVIINVKCKISRECLEPCKKAGMRFGKCMNGKCHCTPK-OH; disulfide 8-28, 14-33, 18-35), the pIC50 is 10.34 against human Kv1.3 (CHO) and 11.20 against human Kv1.1 (HEK293).

`CC[C@H](C)[C@@H]1NC(=O)[C@H](CCCCN)NC(=O)[C@@H](NC(=O)[C@H](CCCCN)NC(=O)[C@@H](NC(=O)[C@H](CC(N)=O)NC(=O)[C@@H](NC(=O)[C@@H](NC(=O)[C@@H](NC(=O)CN)C(C)C)[C@@H](C)CC)[C@@H](C)CC)C(C)C)CSSC[C@@H]2NC(=O)[C@H](CCCCN)NC(=O)CNC(=O)[C@H](Cc3ccccc3)NC(=O)[C@H](CCCNC(=N)N)NC(=O)[C@H](CCSC)NC(=O)CNC(=O)[C@H](C)NC(=O)[C@H](CCCCN)NC(=O)[C@H](CCCCN)NC(=O)[C@@H]3CSSC[C@@H](C(=O)N[C@H](C(=O)N4CCC[C@H]4C(=O)N[C@@H](CCCCN)C(=O)O)[C@@H](C)O)NC(=O)[C@H](Cc4c[nH]cn4)NC(=O)[C@H](CSSC[C@H](NC(=O)[C@H](CCCNC(=N)N)NC(=O)[C@H](CCCNC(=N)N)NC(=O)[C@H](CO)NC1=O)C(=O)N[C@@H](CC(C)C)C(=O)N[C@@H](CCC(=O)O)C(=O)N1CCC[C@H]1C(=O)N3)NC(=O)[C@H](CCCCN)NC(=O)CNC(=O)[C@H](CC(N)=O)NC(=O)[C@H](CCSC)NC2=O` [Q13R] (H-GVIINVKCKISRRCLEPCKKAGMRFGKCMNGKCHCTPK-OH; disulfide 8-28, 14-33, 18-35): the pIC50 was 10.81 against human Kv1.3 (CHO) and over 11.82 against human Kv1.1 (HEK293).

Take `CC[C@H](C)[C@@H]1NC(=O)[C@H](CCCCN)NC(=O)[C@@H](NC(=O)[C@H](CCCCN)NC(=O)[C@@H](NC(=O)[C@H](CC(N)=O)NC(=O)[C@@H](NC(=O)[C@@H](NC(=O)[C@@H](NC(=O)CN)C(C)C)[C@@H](C)CC)[C@@H](C)CC)C(C)C)CSSC[C@@H]2NC(=O)[C@H](CCCCN)NC(=O)CNC(=O)[C@H](Cc3ccccc3)NC(=O)[C@H](CCCNC(=N)N)NC(=O)[C@H](CCSC)NC(=O)CNC(=O)[C@H](C)NC(=O)[C@H](CCCCN)NC(=O)[C@H](CCCCN)NC(=O)[C@@H]3CSSC[C@@H](C(=O)N[C@H](C(=O)N4CCC[C@H]4C(=O)N[C@@H](CCCCN)C(=O)O)[C@@H](C)O)NC(=O)[C@H](Cc4c[nH]cn4)NC(=O)[C@H](CSSC[C@H](NC(=O)[C@H](CCC(N)=O)NC(=O)[C@H](CCC(=O)O)NC(=O)[C@H](CO)NC1=O)C(=O)N[C@@H](CC(C)C)C(=O)N[C@@H](CCC(=O)O)C(=O)N1CCC[C@H]1C(=O)N3)NC(=O)[C@H](CCCCN)NC(=O)CNC(=O)[C@H](CC(N)=O)NC(=O)[C@H](CCSC)NC2=O` [R12E] (H-GVIINVKCKISEQCLEPCKKAGMRFGKCMNGKCHCTPK-OH; disulfide 8-28, 14-33, 18-35): the results for the pIC50 against human Kv1.3 (CHO) and on human Kv1.1 (HEK293) were 10.05 and 9.71, respectively.

Turning to `CC[C@H](C)[C@@H]1NC(=O)[C@H](CCCCN)NC(=O)[C@@H](NC(=O)[C@H](CCCCN)NC(=O)[C@@H](NC(=O)[C@H](CC(N)=O)NC(=O)[C@@H](NC(=O)[C@@H](NC(=O)[C@@H](NC(=O)CN)C(C)C)[C@@H](C)CC)[C@@H](C)CC)C(C)C)CSSC[C@@H]2NC(=O)[C@H](CCCCN)NC(=O)CNC(=O)[C@H](Cc3ccccc3)NC(=O)[C@H](C)NC(=O)[C@H](CCSC)NC(=O)CNC(=O)[C@H](C)NC(=O)[C@H](CCCCN)NC(=O)[C@H](CCCCN)NC(=O)[C@@H]3CSSC[C@@H](C(=O)N[C@H](C(=O)N4CCC[C@H]4C(=O)N[C@@H](CCCCN)C(=O)O)[C@@H](C)O)NC(=O)[C@H](Cc4c[nH]cn4)NC(=O)[C@H](CSSC[C@H](NC(=O)[C@H](CCC(N)=O)NC(=O)[C@H](CCCNC(=N)N)NC(=O)[C@H](CO)NC1=O)C(=O)N[C@@H](CC(C)C)C(=O)N[C@@H](CCC(=O)O)C(=O)N1CCC[C@H]1C(=O)N3)NC(=O)[C@H](CCCCN)NC(=O)CNC(=O)[C@H](CC(N)=O)NC(=O)[C@H](CCSC)NC2=O` [R24A] (H-GVIINVKCKISRQCLEPCKKAGMAFGKCMNGKCHCTPK-OH; disulfide 8-28, 14-33, 18-35), the pIC50 against human Kv1.3 (CHO) was under 8.52; against human Kv1.1 (HEK293), 8.72.

These data come from patent US20090299044A1 (priority 2006, published 2009).
